Experimental findings from PubChem BioAssay (NCI) are described below.

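A five-concentration, 48-hour dose response in 96-well plates underlies each endpoint, interpolated linearly between surrounding concentrations. GI50 is the concentration that inhibits growth by half. TGI: total growth inhibition.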

Among the test systems are SNB-19 CNS; U251 CNS; HCT-15 colon; LOX IMVI melanoma; NCI-H226 lung; EKVX NSCLC; OVCAR-4 ovarian; ACHN renal; SNB-78 CNS; LXFL 529 NSCLC.
What all share (test): inhibition of tumour cell growth, NCI panel, 48 h

As to `Cc1ccccc1NC(=O)N/C(N)=N/c1nc(C)c(C)s1`, the GI50 in the assay with SNB-19 CNS was 0.283 µM; in the assay with U251 CNS it was 0.305 µM; in the assay with HCT-15 colon, 0.0647 µM; in the assay on LOX IMVI melanoma, 0.444 µM; in the assay on NCI-H226 lung, 2.08 µM; in the assay on EKVX NSCLC, 0.542 µM. Moreover, the GI50 in the assay with OVCAR-4 ovarian was 48 µM; in the assay on ACHN renal it was 0.7 µM. Besides, the TGI was 52.7 µM in the assay on SNB-19 CNS; greater than 46.6 µM in the assay on U251 CNS; greater than 100 µM with HCT-15 colon; greater than 100 µM in the assay with LOX IMVI melanoma; greater than 100 µM with NCI-H226 lung; greater than 100 µM in the assay on EKVX NSCLC. Further, the TGI is greater than 100 µM in the assay on OVCAR-4 ovarian and greater than 57 µM in the assay with ACHN renal.
For the compound `CC(C)COC(=O)N1N=NC2C3CC(=O)C(O3)C21` (centres undefined), the TGI in the assay with SNB-19 CNS, with U251 CNS, in the assay with HCT-15 colon, in the assay with LOX IMVI melanoma, in the assay with SNB-78 CNS and in the assay on EKVX NSCLC was greater than 100 µM each time. Besides, the TGI with OVCAR-4 ovarian, in the assay on ACHN renal and in the assay with LXFL 529 NSCLC was greater than 100 µM throughout.
On to `O=C(CC(O)c1cccnc1)CC(O)c1cccnc1` (centres undefined), for which the TGI was 55.4 µM with SNB-19 CNS; 33 µM with U251 CNS; 29.6 µM with HCT-15 colon; 15.4 µM in the assay on LOX IMVI melanoma; greater than 100 µM with NCI-H226 lung; 43.8 µM in the assay with EKVX NSCLC. The results for the TGI with OVCAR-4 ovarian and in the assay with ACHN renal were 40.9 µM and 35.3 µM, respectively.
Take `O=C1/C(=N/N=C(c2ccccc2)c2ccccc2)c2ccccc2-c2ccccc21`: the TGI with SNB-19 CNS, in the assay with U251 CNS, in the assay on HCT-15 colon, with LOX IMVI melanoma, in the assay with NCI-H226 lung and with EKVX NSCLC was greater than 100 µM in each case. In addition, the TGI with OVCAR-4 ovarian and with ACHN renal was greater than 100 µM throughout.
As to `S=P(C1CCCCC1)(C1CCCCC1)C(c1cccnc1)N1CCCC1` (centres undefined), the TGI in the assay on SNB-19 CNS is greater than 100 µM; in the assay with U251 CNS it was 46.6 µM; with HCT-15 colon, greater than 100 µM; in the assay on LOX IMVI melanoma, 23.6 µM; in the assay with NCI-H226 lung, 38 µM; with EKVX NSCLC, 41.7 µM. Further, the TGI in the assay with OVCAR-4 ovarian is 55.7 µM; in the assay with ACHN renal, 34.7 µM.
Regarding `CN(C)c1ccc(/C=N/NC(=O)CSc2nc3sc4c(c3c(=O)n2-c2ccccc2)CCCCC4)cc1`, the GI50 is 6.66 µM in the assay with SNB-19 CNS; 3.2 µM with U251 CNS; 3.96 µM with HCT-15 colon; 3.05 µM in the assay with LOX IMVI melanoma; 4.26 µM in the assay with NCI-H226 lung; 7.08 µM with EKVX NSCLC. Further, the GI50 in the assay on OVCAR-4 ovarian is 2.56 µM; in the assay on ACHN renal it was 5.59 µM. For the same compound, the TGI is 80.9 µM in the assay on SNB-19 CNS; 17.1 µM with U251 CNS; greater than 100 µM in the assay with HCT-15 colon; greater than 100 µM in the assay with LOX IMVI melanoma; greater than 100 µM with NCI-H226 lung; greater than 100 µM in the assay with EKVX NSCLC. The values for the TGI in the assay with OVCAR-4 ovarian and with ACHN renal were 6.49 µM and greater than 100 µM, respectively.
With `CN(C)C(=O)C(NCCO)c1ccccc1` (centres undefined), the TGI in the assay on SNB-19 CNS, in the assay on U251 CNS, in the assay on HCT-15 colon, in the assay with LOX IMVI melanoma, in the assay with NCI-H226 lung and with EKVX NSCLC was greater than 100 µM throughout. The TGI with OVCAR-4 ovarian and in the assay on ACHN renal was greater than 100 µM throughout.
For the compound `COc1ccc2nc(-c3ccc(Cl)cc3)cc(-c3nnc(SCC(=O)Nc4ccc(/C(C)=N\O)cc4)o3)c2c1`, the GI50 is 1.18 µM in the assay on SNB-19 CNS; 0.974 µM in the assay on U251 CNS; 1.88 µM in the assay with HCT-15 colon; 1.76 µM with LOX IMVI melanoma; 3.86 µM with NCI-H226 lung; 3.01 µM in the assay on EKVX NSCLC. Further, the results for the GI50 with OVCAR-4 ovarian and with ACHN renal were 0.904 µM and 1.85 µM, respectively. Also, the TGI came to 3.09 µM in the assay with SNB-19 CNS; 1.9 µM with U251 CNS; 16.4 µM in the assay on HCT-15 colon; 6.92 µM in the assay with LOX IMVI melanoma; 14.4 µM with NCI-H226 lung; 15.3 µM with EKVX NSCLC. Moreover, the TGI with OVCAR-4 ovarian amounted to 1.84 µM; in the assay on ACHN renal, 8.04 µM.
For the compound `C=C(C)[C@@H]1CC[C@]2(C(=O)N3CCN(C)CC3)CC[C@]3(C)[C@H](CC[C@@H]4[C@@]5(C)C/C(=C/c6ccncc6)[C@H](O)C(C)(C)[C@@H]5CC[C@]43C)[C@@H]12`, the GI50 in the assay with SNB-19 CNS was 8.68 µM; with U251 CNS, 5.64 µM; in the assay with HCT-15 colon, 2.65 µM; in the assay with LOX IMVI melanoma it was 4.01 µM; in the assay on NCI-H226 lung, 7.01 µM; with EKVX NSCLC, 6.04 µM. Also, the GI50 in the assay with OVCAR-4 ovarian was 7.08 µM; in the assay with ACHN renal, 6.6 µM. The TGI in the assay on SNB-19 CNS was greater than 100 µM; with U251 CNS, 19.6 µM; in the assay with HCT-15 colon it was 12.2 µM; in the assay on LOX IMVI melanoma, 17.3 µM; in the assay on NCI-H226 lung it was 28.9 µM; with EKVX NSCLC, 43.2 µM. The TGI with OVCAR-4 ovarian and with ACHN renal was greater than 100 µM in each case.
Consider `COc1ccc2c3c(ccc2c1)NC(C(=O)O)CC3` (centres undefined), for which the TGI with SNB-19 CNS, in the assay on U251 CNS, with HCT-15 colon, in the assay on LOX IMVI melanoma, in the assay on NCI-H226 lung and with EKVX NSCLC was greater than 100 µM each time. Also, the TGI in the assay on OVCAR-4 ovarian and in the assay on ACHN renal was greater than 100 µM throughout.
Take `Nc1nc2ccccc2c2[nH]c3ccccc3c12`: the GI50 in the assay on SNB-19 CNS is 1.1 µM; in the assay with U251 CNS, 1.2 µM; in the assay on HCT-15 colon, 0.671 µM; in the assay with LOX IMVI melanoma, 1.05 µM; in the assay with NCI-H226 lung, 9.74 µM; with EKVX NSCLC, 3.19 µM. Besides, the figures for the GI50 in the assay on OVCAR-4 ovarian and in the assay with ACHN renal were 1.5 µM and 0.485 µM, respectively. In addition, the TGI in the assay with SNB-19 CNS worked out at 3.71 µM; with U251 CNS it was 2.43 µM; in the assay on HCT-15 colon, 2.43 µM; in the assay with LOX IMVI melanoma, 2.28 µM; with NCI-H226 lung it was 37.2 µM; with EKVX NSCLC, 11.6 µM. Further, the results for the TGI in the assay on OVCAR-4 ovarian and in the assay on ACHN renal were 3.52 µM and 1.79 µM, respectively.
